In patent US20240294499A1, “TARGETED PROTEIN DEGRADATION USING BIFUNCTIONAL COMPOUNDS THAT BIND UBIQUITIN LIGASE AND TARGET MCL-1 PROTEIN” (Captor Therapeutics S.A., priority 2021, published 2024):

Experiments:
[1] = biological target: [MCL-1]-[compound of formula (I)]-[CRBN/DDB1] complex (Homo sapiens, UniProt Q07820+Q96SW2); experiment: AlphaLISA dose response ternary complex formation assay; type: binding; conditions: read-out: AlphaLISA dose response Average pEC50 by molecule (converted)
Method: The effect of the bifunctional compounds of the invention on the formation of a ternary complex composed of [MCL-1]-[compound of formula (I)]-[CRBN/DDB1] was investigated with two methods: AlphaLISA dose response assay or HTRF ternary complex assay.
Two types of protein solution were prepared: • 40 nM biotinylated hMCL-1, 40 μg/ml AlphaScreen Streptavidin-coated Donor Beads in PBS buffer with 0.1% Tween-20 and 1 mM DTT, • 200 nM 6×His-CRBN/Strep-DDB1, 40 μg/ml AlphaLISA Anti-6×His Acceptor beads in PBS buffer with 0.1% Tween-20 and 1 mM DTT.
The prepared solutions were incubated at room temperature for 45 min and then the solution containing the donor beads was mixed with the solution containing the acceptor beads.
The tested compounds were dispensed onto a white 384-well AlphaPlate 384 SW. DMSO was backfilled to all wells, resulting in a final DMSO content of 2%. Wells containing only DMSO served as background. Next, 10 μl of solution with donor and acceptor beads was added to the wells.
The plate was sealed with transparent film and shaken using a VibroTurbulator for 60 see at room temperature, level 3. The plate was then spun down shortly (10 s, 1000 rcf, room temperature) and incubated at 25° C. for 30 min.
The read-out was performed with PerkinElmer Enspire Multimode Plate Reader (method for AlphaLISA 384-well low volume, Filterset: λexc=680 nm, λem=615 nm).
The results were analyzed as follows: • 1) an average of luminescence for background signal was calculated and used as a negative control; • 2) average of the maximum measured luminescence for 233 was calculated and used as an internal positive control; • 3) raw luminescence values were normalized against positive and negative controls; • 4) concentration points above the hook point were excluded; • 5) EC50 and pEC50 values were determined.

MV-4-11 cells = experiment: Cell viability assay (CellTiter-Glo), MV-4-11; type: cell-based; conditions: Homo sapiens, MV4-11, 24 hours incubation, 1% FBS, read-out: Average pIC50 by molecule MV-4-11 (converted)
Source text: (§1) The effect of various compounds of the invention on the viability of OPM-2, MV-4-11 and ARH-77 cell lines was investigated, using the CTG protocol described below.
(§2) OPM-2 and MV-4-11 cell lines are derived from multiple myeloma and acute myeloid leukaemia, respectively. Both cell lines are described in the literature as MCL-1 dependent lines, as opposed to lymphoblast-like ARH-77 cell line, which is described as independent of MCL-1 (Tron A E et al. Nat Commun. 2018; 9: 5341; Caenepeel S et al. Cancer Discov. 2018 December; 8(12):1582-1597).
(§3) Cells (OPM-2, MV-4-11 or ARH-77) were seeded on […] in a growth medium with FBS reduced to 1%. Next, compound stocks were pre-diluted in DMSO and added directly to the cells growth medium (final DMSO concentration: 0.5%). Compound concentrations used in this assay: 1/3 dilutions starting at 30 uM (9 to 12 points).
(§4) After 24 hours of incubation, cell viability was evaluated using CellTiter-Glo Luminescent Cell Viability Assay (Promega, cat #G7572). Luminescence signal was measured using a CLARIOstar Plus Multi-Mode Microplate Reader (574-590 nm).
(§5) Results were normalized to DMSO control.

ARH-77 cells = experiment: Cell viability assay (CellTiter-Glo), ARH-77; type: cell-based; conditions: Homo sapiens, ARH-77, 24 hours incubation, 1% FBS, read-out: Average pIC50 by molecule ARH-77 (converted)
Source text: as §1, §2, §3, §4, §5

Chain of [MCL-1]-[compound of formula (I)]-[CRBN/DDB1] complex (Q07820 whole entry): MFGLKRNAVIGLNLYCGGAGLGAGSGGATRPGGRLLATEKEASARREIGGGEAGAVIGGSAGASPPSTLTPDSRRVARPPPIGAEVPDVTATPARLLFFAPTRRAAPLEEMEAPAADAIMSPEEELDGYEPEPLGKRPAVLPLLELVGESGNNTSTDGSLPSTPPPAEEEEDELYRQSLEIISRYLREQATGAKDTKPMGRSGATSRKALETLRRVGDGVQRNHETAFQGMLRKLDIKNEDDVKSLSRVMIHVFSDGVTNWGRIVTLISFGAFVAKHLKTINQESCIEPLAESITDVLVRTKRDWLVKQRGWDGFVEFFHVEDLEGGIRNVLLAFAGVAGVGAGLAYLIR
Chain of [MCL-1]-[compound of formula (I)]-[CRBN/DDB1] complex (Q96SW2 whole entry): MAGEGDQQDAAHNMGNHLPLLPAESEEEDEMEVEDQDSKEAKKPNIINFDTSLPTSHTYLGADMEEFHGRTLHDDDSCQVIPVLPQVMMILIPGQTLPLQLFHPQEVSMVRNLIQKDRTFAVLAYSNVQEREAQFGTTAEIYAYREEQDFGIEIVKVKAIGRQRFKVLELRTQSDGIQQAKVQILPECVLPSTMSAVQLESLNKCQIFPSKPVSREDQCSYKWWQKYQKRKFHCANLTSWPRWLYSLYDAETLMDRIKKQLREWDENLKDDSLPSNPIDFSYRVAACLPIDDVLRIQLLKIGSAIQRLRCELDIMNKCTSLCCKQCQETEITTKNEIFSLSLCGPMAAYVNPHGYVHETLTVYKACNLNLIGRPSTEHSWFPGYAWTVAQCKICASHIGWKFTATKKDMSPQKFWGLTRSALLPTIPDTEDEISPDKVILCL
Chain of [MCL-1]-[compound of formula (I)]-[CRBN/DDB1] complex (Q16531 whole entry partner): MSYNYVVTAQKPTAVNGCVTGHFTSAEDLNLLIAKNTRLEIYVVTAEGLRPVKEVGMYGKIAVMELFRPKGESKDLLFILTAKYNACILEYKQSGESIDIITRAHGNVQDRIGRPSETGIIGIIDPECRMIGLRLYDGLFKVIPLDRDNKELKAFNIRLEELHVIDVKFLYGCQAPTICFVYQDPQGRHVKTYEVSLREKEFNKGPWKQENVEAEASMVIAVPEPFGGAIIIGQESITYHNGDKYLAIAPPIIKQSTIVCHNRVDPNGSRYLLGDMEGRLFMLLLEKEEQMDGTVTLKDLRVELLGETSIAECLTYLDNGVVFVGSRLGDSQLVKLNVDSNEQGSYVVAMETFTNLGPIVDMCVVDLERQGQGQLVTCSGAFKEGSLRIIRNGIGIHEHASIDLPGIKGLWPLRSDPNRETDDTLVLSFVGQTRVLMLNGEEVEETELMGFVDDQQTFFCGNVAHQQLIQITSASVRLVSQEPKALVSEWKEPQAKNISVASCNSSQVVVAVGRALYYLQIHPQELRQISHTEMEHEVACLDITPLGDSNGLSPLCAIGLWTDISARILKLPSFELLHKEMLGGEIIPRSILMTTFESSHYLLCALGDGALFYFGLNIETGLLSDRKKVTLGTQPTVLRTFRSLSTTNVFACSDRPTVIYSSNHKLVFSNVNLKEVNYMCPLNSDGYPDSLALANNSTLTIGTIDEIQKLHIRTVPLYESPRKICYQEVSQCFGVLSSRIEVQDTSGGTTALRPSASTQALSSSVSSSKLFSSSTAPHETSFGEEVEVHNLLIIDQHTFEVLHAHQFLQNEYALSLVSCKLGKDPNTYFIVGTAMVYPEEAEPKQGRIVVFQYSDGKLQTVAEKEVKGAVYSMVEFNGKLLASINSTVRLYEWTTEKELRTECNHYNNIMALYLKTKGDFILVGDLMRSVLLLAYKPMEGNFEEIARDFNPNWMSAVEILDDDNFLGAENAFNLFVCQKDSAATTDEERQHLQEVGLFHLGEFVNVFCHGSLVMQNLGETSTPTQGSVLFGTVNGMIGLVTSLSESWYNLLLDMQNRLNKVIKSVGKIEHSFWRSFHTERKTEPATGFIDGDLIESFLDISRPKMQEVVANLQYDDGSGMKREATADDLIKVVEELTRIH

Compound | EC50 [1] [µM] | IC50 (MV-4-11 cells) [µM] | IC50 (ARH-77 cells) [µM]
Cc1nn(C)c(C)c1-c1c(Cl)ccc2c(CCCOc3cccc4cc(F)ccc34)c(C(=O)O)n(CCN3CCN(C(=O)COc4cccc5c4CN([C@H]4CCC(=O)NC4=O)C5=O)CC3)c12 (single isomer, unassigned) [Compound 296] | < 0.1 | ≤ 0.0316 | > 10
Cc1cc(OCCCc2c(C(=O)O)n(CCN3CCN(C(=O)CCOCCOCCOCCOCCOCCOCCNc4cccc5c4C(=O)N(C4CCC(=O)NC4=O)C5=O)CC3)c3c(-c4c(C)nn(C)c4C)c(Cl)ccc23)cc(C)c1Cl (stereo not drawn) [Compound 203, 6-chloro-3-[3-(4-chloro-3,5-dimethylphenoxy)propyl]-1-{2-(4-(1-{(2-(2,6-dioxopiperidin-3-yl)-1,3-dioxo-2,3-dihydro-1H-isoindol-4-yl]amino}-3,6,9,12,15,18-hexaoxahenicosanoyl)piperazin-1-yl]ethyl}-7-(1,3,5-trimethyl-1H-pyrazol-4-yl)-1H-indole-2-carboxylic acid] | < 0.1 | ≤ 1 | –
Cc1nc2cccc(NCC(=O)N3CCN(CCn4c(C(=O)O)c(CCCOc5cccc6cc(F)ccc56)c5ccc(Cl)c(-c6c(C)nn(C)c6C)c54)CC3)c2cc1C1CCC(=O)NC1=O (stereo not drawn) [Compound 287, 6-Chloro-1-{2-[4-(2-{[3-(2,6-dioxopiperidin-3-yl)-2-methylquinolin-5-yl]amino}acetyl)piperazin-1-yl]ethyl}-3-{3-[(6-fluoronaphthalen-1-yl)oxy]propyl}-7-(1,3,5-trimethyl-1H-pyrazol-4-yl)-1H-indole-2-carboxylic acid] | – | ≤ 1 | > 3.16
Cc1nn(C)c(C)c1-c1c(Cl)ccc2c(CCCOc3cccc4cc(F)ccc34)c(C(=O)O)n(CCN3CCN(C(=O)COc4cccc5c4CN([C@@H]4CCC(=O)NC4=O)C5=O)CC3)c12 [Compound 297, (R)-6-Chloro-1-(2-(4-(2-((2-(2,6-dioxopiperidin-3-yl)-1-oxoisoindolin-4-yl)oxy)acetyl)piperazin-1-yl)ethyl)-3-(3-((6-fluoronaphthalen-1-yl)oxy)propyl)-7-(1,3,5-trimethyl-1H-pyrazol-4-yl)-1H-indole-2-carboxylic acid] | – | ≤ 0.1 | > 10
Cc1nn(C)c(C)c1-c1c(Cl)ccc2c(CCCN(C)c3cccc4ccccc34)c(C(=O)O)n(CCN3CCN(C(=O)COc4cccc5c4CN(C4CCC(=O)NC4=O)C5=O)CC3)c12 (stereo not drawn) [Compound 353, 6-Chloro-1-(2-(4-(2-((2-(2,6-dioxopiperidin-3-yl)-1-oxoisoindolin-4-yl)oxy)acetyl)piperazin-1-yl)ethyl)-3-(3-(methyl(naphthalen-1-yl)amino)propyl)-7-(1,3,5-trimethyl-1H-pyrazol-4-yl)-1H-indole-2-carboxylic acid] | < 1 | – | –

More lines, main results first:

EC50 [1] [µM] | IC50 (MV-4-11 cells) [µM] | Compound | IC50 (ARH-77 cells) [µM]
< 0.1 | ≤ 0.0316 | Cc1nn(C)c(C)c1-c1c(Cl)ccc2c(CCCOc3cccc4cc(F)ccc34)c(C(=O)O)n(CCN3CCN(C(=O)[C@H](C)Oc4cccc5c4C(=O)N(C4CCC(=O)NC4=O)C5=O)CC3)c12 (mixture of isomers) [Compound 318, 6-Chloro-1-(2-(4-((2S)-2-((2-(2,6-dioxopiperidin-3-yl)-1,3-dioxoisoindolin-4-yl)oxy)propanoyl)piperazin-1-yl)ethyl)-3-(3-((6-fluoronaphthalen-1-yl)oxy)propyl)-7-(1,3,5-trimethyl-1H-pyrazol-4-yl)-1H-indole-2-carboxylic acid] | > 10
< 1 | ≤ 0.1 | Cc1nn(C)c(C)c1-c1c(Cl)ccc2c(CCCOc3cccc4cc(F)ccc34)c(C(=O)O)n(CCN3CCN(C(=O)[C@@H](C)Oc4cccc5c4C(=O)N([C@@H]4CCC(=O)NC4=O)C5=O)CC3)c12 (single isomer, unassigned) [Compound 316] | > 3.16
– | ≤ 0.1 | Cc1nn(C)c(C)c1-c1c(Cl)ccc2c(CCCOc3cccc4cc(F)ccc34)c(C(=O)O)n(CCN3CCN(C(=O)[C@H](C)Oc4cccc5c4C(=O)N([C@@H]4CCC(=O)NC4=O)C5=O)CC3)c12 (single isomer, unassigned) [Compound 320] | > 10
